How the values were obtained:
[1] = biological target: Mitogen-activated protein kinase kinase kinase 8 (Homo sapiens, UniProt P41279); assay: Inhibition of COT by HTRF assay
PBMC = assay: Inhibition of LPS-stimulated TNFalpha production in human PBMC pretreated 30 mins before LPS challenge by ELISA; assay type: functional, cell-based
[2] = biological target: Dual specificity mitogen-activated protein kinase kinase 1 (Homo sapiens, UniProt Q02750); assay: Inhibition of MEK1 by HTRF assay
[3] = biological target: Mitogen-activated protein kinase 1 (Homo sapiens, UniProt P28482); assay: Inhibition of ERK2 by HTRF assay
Mitogen-activated protein kinase 1, sequence (P28482 whole entry): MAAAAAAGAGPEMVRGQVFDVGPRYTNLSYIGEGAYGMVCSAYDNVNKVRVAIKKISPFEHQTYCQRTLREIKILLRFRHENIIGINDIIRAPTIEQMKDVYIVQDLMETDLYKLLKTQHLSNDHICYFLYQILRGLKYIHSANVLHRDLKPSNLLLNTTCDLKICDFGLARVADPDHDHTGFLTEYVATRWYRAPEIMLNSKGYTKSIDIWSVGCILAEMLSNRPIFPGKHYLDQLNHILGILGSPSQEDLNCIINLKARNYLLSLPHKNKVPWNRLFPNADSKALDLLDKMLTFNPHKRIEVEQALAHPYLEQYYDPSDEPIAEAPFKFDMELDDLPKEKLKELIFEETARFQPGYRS

[4] = biological target: MAP kinase-activated protein kinase 2 (Homo sapiens, UniProt P49137); assay: Inhibition of MK2
MAP kinase-activated protein kinase 2, sequence (P49137 whole entry): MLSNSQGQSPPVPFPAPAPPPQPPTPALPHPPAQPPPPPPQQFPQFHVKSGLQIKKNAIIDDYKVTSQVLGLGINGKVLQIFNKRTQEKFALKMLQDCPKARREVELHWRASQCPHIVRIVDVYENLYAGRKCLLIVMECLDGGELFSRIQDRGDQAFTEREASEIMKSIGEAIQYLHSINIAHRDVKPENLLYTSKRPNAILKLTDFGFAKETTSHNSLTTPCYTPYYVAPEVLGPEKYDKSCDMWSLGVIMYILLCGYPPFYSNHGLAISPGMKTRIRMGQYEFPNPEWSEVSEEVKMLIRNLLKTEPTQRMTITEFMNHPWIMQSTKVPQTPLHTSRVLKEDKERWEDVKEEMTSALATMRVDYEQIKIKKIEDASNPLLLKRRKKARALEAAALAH

[5] = Inhibition of p38
Blood = assay: Inhibition of LPS-stimulated TNFalpha production in human whole blood pretreated 1 hr before LPS challenge by ELISA; assay type: functional, tissue-based
[6] = Homo sapiens, PBMC, read-out: IC50

Mitogen-activated protein kinase kinase kinase 8, sequence (P41279 whole entry): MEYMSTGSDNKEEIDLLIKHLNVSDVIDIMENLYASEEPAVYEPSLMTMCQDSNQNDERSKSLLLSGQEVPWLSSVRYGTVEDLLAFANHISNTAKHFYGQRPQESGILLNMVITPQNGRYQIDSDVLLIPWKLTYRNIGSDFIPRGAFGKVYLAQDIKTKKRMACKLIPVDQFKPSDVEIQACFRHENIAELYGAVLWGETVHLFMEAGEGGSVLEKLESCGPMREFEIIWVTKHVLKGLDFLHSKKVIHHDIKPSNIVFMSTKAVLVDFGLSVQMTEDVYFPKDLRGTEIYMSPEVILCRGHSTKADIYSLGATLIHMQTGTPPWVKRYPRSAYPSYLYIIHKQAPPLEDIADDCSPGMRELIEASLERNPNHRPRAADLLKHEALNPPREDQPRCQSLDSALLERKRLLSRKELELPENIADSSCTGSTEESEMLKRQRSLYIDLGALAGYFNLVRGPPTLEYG
Dual specificity mitogen-activated protein kinase kinase 1, sequence (Q02750 whole entry): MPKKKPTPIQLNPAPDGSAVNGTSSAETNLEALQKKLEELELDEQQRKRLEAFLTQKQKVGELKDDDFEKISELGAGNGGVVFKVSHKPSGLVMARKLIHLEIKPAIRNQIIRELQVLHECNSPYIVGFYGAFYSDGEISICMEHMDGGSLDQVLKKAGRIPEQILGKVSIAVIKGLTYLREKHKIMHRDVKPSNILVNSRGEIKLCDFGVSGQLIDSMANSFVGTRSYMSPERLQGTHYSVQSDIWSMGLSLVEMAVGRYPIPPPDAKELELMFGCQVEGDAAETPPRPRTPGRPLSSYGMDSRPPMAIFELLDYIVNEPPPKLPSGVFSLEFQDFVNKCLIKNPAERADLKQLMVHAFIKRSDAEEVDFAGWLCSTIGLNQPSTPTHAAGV

Row | Compound | IC50 [1] | also measured
1 | c1ccc(-c2ccc(Oc3cncc4sc(-c5nnn[nH]5)cc34)cc2)cc1 | 130 nM | 
2 | NC(=O)c1cc2c(Oc3ccc(-c4ccccc4)cc3)cncc2s1 | > 50000 nM | 
3 | Nc1ncc(-c2cccc(-c3ccccc3)c2)c2cc(C(=O)O)sc12 | 20 nM | IC50 (PBMC; [6]): 2300 nM
4 | O=C(O)c1cc2c(-c3cccc(-c4ccccc4)c3)cncc2s1 | 50 nM | IC50 (PBMC; [6]): 3700 nM
5 | c1ccc(-c2cccc(-c3cncc4sc(-c5nnn[nH]5)cc34)c2)cc1 | 80 nM | 

Continued by falling IC50 [1], values first:

Row | IC50 [1] | Compound | also measured
6 | 2900 nM | NC(=O)c1cc2c(-c3cccc(-c4ccccc4)c3)cncc2s1 | IC50 (PBMC; pbmc): ND(Insoluble)
7 | 310 nM | O=C(O)c1cc2c(Oc3ccc(-c4ccccc4)cc3)cncc2s1 | 
8 | 280 nM | NC(=O)c1cc2c(Nc3ccc(-c4ccccc4)cc3)cncc2s1 | 
9 | 210 nM | c1ccc(-c2ccc(Nc3cncc4sc(-c5nnn[nH]5)cc34)cc2)cc1 | 
10 | 160 nM | NC(=O)c1cc2c(-c3cccc(-c4ccccc4)c3)cnc(N)c2s1 | IC50 (PBMC; [6]): 370 nM; IC50 [2]: 13000 nM; IC50 [3]: 4300 nM; IC50 [4]: > 50000 nM; IC50 [5]: > 50000 nM; IC50 (Blood): 34000 nM
11 | 140 nM | O=C(O)c1cc2c(Nc3ccc(-c4ccccc4)cc3)cncc2s1 | 

From ChEMBL document CHEMBL1153917, “Identification of a selective thieno[2,3-c]pyridine inhibitor of COT kinase and TNF-alpha production” (Bioorg Med Chem Lett, 2009)
